This note sets out measurements from ChEMBL document CHEMBL3120147, “Synthesis and in vitro urease inhibitory activity of N,N'-disubstituted thioureas” (Eur J Med Chem, 2014).

Broadly, the IC50 is the point on the concentration scale where inhibition reaches its midpoint. A word on the Ki: it is a measure of affinity in units of concentration, obtained from inhibition or displacement.

Test [1] concerns the target T1, Urease (Canavalia ensiformis, UniProt P07374). Briefly: Inhibition of jack bean urease using urea as substrate assessed as ammonia production after 15 mins by indophenol method.
Test [2] deals with Urease (Canavalia ensiformis) (UniProt P07374). Kind of test: (§1) Mixed-type inhibition of jack bean urease using urea as substrate assessed as ammonia production after 15 mins by Lineweaver-Burk/Dixon plot analysis.
Test [3] has as its target T1, Urease. The description is as §1.
Test [4] addresses Urease (Canavalia ensiformis) (UniProt P07374). Kind of test: (§2) Non-competitive inhibition of jack bean urease using urea as substrate assessed as ammonia production after 15 mins by Lineweaver-Burk/Dixon plot analysis.
Test [5] concerns the target T1, Urease. The test is described as §2.
The target in test [6] is Urease (Canavalia ensiformis) (UniProt P07374). Kind of test: (§3) Competitive inhibition of jack bean urease using urea as substrate assessed as ammonia production after 15 mins by Lineweaver-Burk/Dixon plot analysis.
Test [7] has as its target T1, Urease. Described as §3.

Sequence of Urease (Canavalia ensiformis) (P07374 whole entry, looked up): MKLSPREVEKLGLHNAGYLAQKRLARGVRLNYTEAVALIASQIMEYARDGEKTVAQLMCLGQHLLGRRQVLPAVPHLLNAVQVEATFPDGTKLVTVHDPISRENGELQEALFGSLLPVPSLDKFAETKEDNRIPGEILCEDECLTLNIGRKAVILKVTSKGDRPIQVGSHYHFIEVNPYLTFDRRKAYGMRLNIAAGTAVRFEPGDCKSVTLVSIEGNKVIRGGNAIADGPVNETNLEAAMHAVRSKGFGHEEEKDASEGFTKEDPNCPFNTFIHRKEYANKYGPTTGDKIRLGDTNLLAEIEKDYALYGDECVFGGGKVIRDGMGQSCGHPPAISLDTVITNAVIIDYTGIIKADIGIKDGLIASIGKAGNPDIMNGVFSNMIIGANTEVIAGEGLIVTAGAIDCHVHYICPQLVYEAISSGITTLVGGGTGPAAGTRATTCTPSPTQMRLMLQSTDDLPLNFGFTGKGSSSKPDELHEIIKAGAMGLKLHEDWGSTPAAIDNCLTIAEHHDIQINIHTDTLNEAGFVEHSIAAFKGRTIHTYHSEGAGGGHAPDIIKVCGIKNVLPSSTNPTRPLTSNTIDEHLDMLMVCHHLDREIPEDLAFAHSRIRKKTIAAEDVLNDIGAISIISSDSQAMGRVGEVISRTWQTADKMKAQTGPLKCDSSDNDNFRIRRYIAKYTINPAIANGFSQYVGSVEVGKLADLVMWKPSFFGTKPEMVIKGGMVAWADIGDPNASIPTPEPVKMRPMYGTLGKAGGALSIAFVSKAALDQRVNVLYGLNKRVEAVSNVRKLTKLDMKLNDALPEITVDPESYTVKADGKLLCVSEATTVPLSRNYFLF
T1 sequence (P07374 whole entry): as the sequence (P07374 whole entry, looked up) above

Turning to `Fc1ccc(NC(=S)Nc2cccc(Cl)c2)cc1F`, the half-maximal inhibitory concentration (IC50) at Urease [1] (read-out: IC50) amounted to 16.3 µM.

Turning to `S=C(Nc1cccc(Cl)c1)Nc1cccc(Cl)c1Cl`, on Urease [1] (read-out: IC50), the half-inhibitory concentration (IC50) stood at 27.1 µM.

Consider `S=C(NCc1ccncc1)Nc1ccccc1`, for which, on Urease [1] (read-out: IC50), the IC50 was 32.6 µM.

For `Cc1cccnc1NC(=S)Nc1ccccc1`, the half-inhibitory concentration (IC50) at Urease [1] (read-out: IC50) was determined as 25.3 µM.

Consider `S=C(Nc1cccc(Cl)c1)Nc1cccc(Cl)c1`, for which, on Urease [1] (read-out: IC50), the IC50 amounted to 20 µM. Further, in test [2], the inhibition entry was “Dose-dependent effect”. Moreover, on Urease [3], the Ki turned out to be 18.1 µM.

Turning to `Cc1ccc(C)c(NC(=S)Nc2cccc(Cl)c2)c1`, the concentration for half-maximal inhibition (IC50) at Urease [1] (read-out: IC50) is 20.9 µM. In test [2], the inhibition result was “Dose-dependent effect”. In addition, the inhibitory constant (Ki) on Urease [3] came to 19.3 µM.

As to `COc1cccc(NC(=S)Nc2cccc(Cl)c2)c1`, the 50% inhibitory concentration (IC50) at Urease [1] (read-out: IC50) is 24.5 µM.

As for `S=C(Nc1cccc(Cl)c1)Nc1ccccc1Cl`, the 50% inhibitory concentration (IC50) on Urease [1] (read-out: IC50) is 22.2 µM.

Regarding `S=C(Nc1ccccc1)Nc1cccc(Br)c1`, the half-maximal inhibitory concentration (IC50) on Urease [1] (read-out: IC50) turned out to be 18.3 µM. Also, the inhibition entry in test [2] is “Dose-dependent effect”. Besides, at Urease [3], the inhibitory constant (Ki) turned out to be 15.6 µM.

`Cc1cccc(NC(=S)Nc2cccc(Cl)c2)c1`: on Urease [1] (read-out: IC50), the 50% inhibitory concentration (IC50) stood at 15 µM. Also, in test [2], the inhibition result is “Dose-dependent effect”. On Urease [3], the Ki was 15.7 µM.

As to `S=C(Nc1cccc(Cl)c1)Nc1cccnc1Cl`, on Urease [1], the IC50 result is listed as “Not Active”.

For `COc1ccc(NC(=S)Nc2cccc(Cl)c2)cc1`, at Urease [1] (read-out: IC50), the IC50 is 29.6 µM.

On to `Fc1ccc(NC(=S)Nc2ccccc2)c(F)c1`, for which the IC50 on Urease [1] (read-out: IC50) stood at 24.3 µM.

As to `S=C(Nc1ccccc1)Nc1ccccn1`, the 50% inhibitory concentration (IC50) on Urease [1] (read-out: IC50) turned out to be 23.4 µM.

As for `S=C(NCc1ccncc1)Nc1cccc(Cl)c1`, the IC50 at Urease [1] (read-out: IC50) came out at 22.7 µM.

Regarding `S=C(Nc1ccccc1)Nc1cccnc1Cl`, the IC50 entry on Urease [1] is reported as “Not Active”.

As to `Cc1ccc(NC(=S)Nc2cccc(Cl)c2)cc1`, the inhibition entry in test [4] is “Dose-dependent effect”. In addition, at Urease [5], the Ki worked out at 12.1 µM. At Urease [1] (read-out: IC50), the 50% inhibitory concentration (IC50) turned out to be 18.6 µM.

As for `S=C(NCc1cccnc1)Nc1cccc(Cl)c1`, the 50% inhibitory concentration (IC50) at Urease [1] (read-out: IC50) stood at 23 µM.

On to `Cc1ccc(NC(=S)Nc2cccc(Cl)c2)c(C)c1`, for which the half-inhibitory concentration (IC50) on Urease [1] (read-out: IC50) was 24.1 µM.

Regarding `S=C(Nc1ccccc1)Nc1ccc(Br)cc1`, the IC50 at Urease [1] (read-out: IC50) worked out at 34.3 µM.

For `S=C(Nc1cccc(Cl)c1)Nc1ccc(Cl)cc1Cl`, the concentration for half-maximal inhibition (IC50) on Urease [1] (read-out: IC50) came out at 42.2 µM.

Regarding `S=C(Nc1cccc(Cl)c1)Nc1c(Cl)cccc1Cl`, the IC50 at Urease [1] (read-out: IC50) stood at 41 µM.

With `S=C(Nc1ccccc1)Nc1ncc(Cl)cc1Cl`, the IC50 on Urease [1] (read-out: IC50) stood at 37 µM.

For the compound `S=C(NCc1cccnc1)Nc1ccccc1`, the IC50 on Urease [1] (read-out: IC50) turned out to be 33.5 µM.

Regarding `S=C(Nc1ccc(Cl)cc1)Nc1cccc(Cl)c1`, on Urease [1] (read-out: IC50), the IC50 came out at 20.3 µM. Besides, the inhibition entry in test [2] was “Dose-dependent effect”. Besides, the inhibition constant Ki at Urease [3] was determined as 18.1 µM.

As to `Fc1ccc(NC(=S)Nc2cccc(Cl)c2)cc1`, the half-inhibitory concentration (IC50) on Urease [1] (read-out: IC50) was 19.1 µM. At Urease [3], the Ki is 16.8 µM.

Turning to `Cc1cccc(C)c1NC(=S)Nc1cccc(Cl)c1`, at Urease [1] (read-out: IC50), the IC50 came out at 27.4 µM.

With `COc1ccccc1NC(=S)Nc1cccc(Cl)c1`, the concentration for half-maximal inhibition (IC50) on Urease [1] (read-out: IC50) worked out at 20.1 µM.

With `S=C(Nc1ccccc1)Nc1ccncc1`, the IC50 at Urease [1] (read-out: IC50) was found to be 43.9 µM.

`COc1ccc(OC)c(NC(=S)Nc2ccccc2)c1`: the IC50 at Urease [1] (read-out: IC50) was found to be 29.9 µM.

Consider `S=C(Nc1cccc(Cl)c1)Nc1ccc(Cl)c(Cl)c1`, for which, at Urease [1] (read-out: IC50), the half-inhibitory concentration (IC50) was 11 µM. Moreover, the inhibition entry in test [6] is “Dose-dependent effect”. The Ki at Urease [7] was determined as 11.7 µM.

In the case of `Cc1ccc(Cl)cc1NC(=S)Nc1cccc(Cl)c1`, the IC50 at Urease [1] (read-out: IC50) is 20.1 µM. The inhibition result in test [2] was “Dose-dependent effect”. The Ki at Urease [3] is 18.5 µM.

For the compound `Cc1cccnc1NC(=S)Nc1cccc(Cl)c1`, the IC50 at Urease [1] (read-out: IC50) came out at 15.9 µM.

As for `S=C(Nc1ccccc1)Nc1cccnc1`, the IC50 at Urease [1] (read-out: IC50) is 8.43 µM. Moreover, the inhibition entry in test [6] was “Dose-dependent effect”. Also, the Ki on Urease [7] is 8.6 µM.

As to `Cc1nc(NC(=S)Nc2ccccc2)ccc1Br`, the IC50 on Urease [1] (read-out: IC50) was 82.7 µM.

Consider `NC(N)=S` [THIOUREA], for which, at Urease [7], the Ki was 20 µM.

On to `Cc1ccccc1NC(=S)Nc1cccc(Cl)c1`, for which the IC50 at Urease [1] (read-out: IC50) was 34.4 µM.

In the case of `S=C(Nc1cccnc1)Nc1cccc(Cl)c1`, the half-maximal inhibitory concentration (IC50) on Urease [1] (read-out: IC50) is 24.5 µM.

As to `S=C(NCc1ccco1)Nc1ccccc1`, the half-maximal inhibitory concentration (IC50) at Urease [1] (read-out: IC50) stood at 32.4 µM.

`Fc1ccc(NC(S)=Nc2cccc(Cl)c2)cc1`: the inhibition result in test [2] is “Dose-dependent effect”.
